Laboratory results from ChEMBL document CHEMBL3885861, “Open TG-GATES”.

Organism: Rattus norvegicus
Assay: Open TG-GATES - Regimen: Daily Repeat
Type: toxicity, organism-based, Sprague-Dawley
Parameters: regimen Daily Repeat, gender Male, age 6 weeks
Settings: in vivo, po, 25 mg/kg, route gavage, dose level Low; for APTT / Bas / Eos / Fbg / Hb / Ht / Lym / MCH / MCHC / MCV / Mono / Neu / PT / Plat / RBC / Ret / WBC: tissue Blood; for KIDNEY_L / KIDNEY_R / KIDNEY_TOTAL: tissue Kidney; for LIVER: tissue Liver; for A/G / ALP / ALT / AST / BUN / CRE / Ca / Cl / DBIL / GLC / IP / K / LDH / Na / PL / RALB / TBIL / TC / TG / TP / gamma-GTP: tissue Plasma

`CCSCC[C@H](N)C(=O)O` [ETHIONINE] was tested, and the TERMINAL_BW (72 h, time 3 day) was 235.6 g, the APTT (72 h, time 3 day) was 22.5 s and the Bas (72 h, time 3 day) was 0%. For the same compound, the Eos (72 h, time 3 day) was 1%, the Fbg (72 h, time 3 day) was 213.8 mg/dL and the Hb (72 h, time 3 day) was 13.1 g/dL. For the same compound, the Ht (72 h, time 3 day) was 39.1%, the Lym (72 h, time 3 day) was 76.6% and the MCH (72 h, time 3 day) was 20.8 pg. For the same compound, the MCHC (72 h, time 3 day) was 33.6%, the MCV (72 h, time 3 day) was 61.9 fL and the Mono (72 h, time 3 day) was 2.8%. It also gave a Neu (72 h, time 3 day) of 18.8%, a PT (72 h, time 3 day) of 13.5 s and a Plat (72 h, time 3 day) of 126.1 x10_4/uL. It also gave an RBC (72 h, time 3 day) of 631.2 x10_4/ul, a Ret (72 h, time 3 day) of 6.4% and a WBC (72 h, time 3 day) of 124.8 x10_2/uL. It also gave a KIDNEY_L (72 h, time 3 day) of 1 g, a KIDNEY_R (72 h, time 3 day) of 1 g and a KIDNEY_TOTAL (72 h, time 3 day) of 2.1 g. The LIVER (72 h, time 3 day) was 11 g, the A/G (72 h, time 3 day) was 1.6 and the ALP (72 h, time 3 day) was 1017.8 IU/L. For the same compound, the ALT (72 h, time 3 day) was 39.2 IU/L, the AST (72 h, time 3 day) was 68.2 IU/L and the BUN (72 h, time 3 day) was 14.4 mg/dL. The CRE (72 h, time 3 day) was 0.4 mg/dL, the Ca (72 h, time 3 day) was 10.6 mg/dL and the Cl (72 h, time 3 day) was 100.2 meq/L. The DBIL (72 h, time 3 day) was 0.08 mg/dL, the GLC (72 h, time 3 day) was 203.4 mg/dL and the IP (72 h, time 3 day) was 8.7 mg/dL. It also gave a K (72 h, time 3 day) of 4 meq/L, an LDH (72 h, time 3 day) of 174.4 IU/L and a Na (72 h, time 3 day) of 139.6 meq/L. It also gave a PL (72 h, time 3 day) of 129.6 mg/dL, an RALB (72 h, time 3 day) of 3.5 g/dL and a TBIL (72 h, time 3 day) of 0.1 mg/dL. It also gave a TC (72 h, time 3 day) of 56.6 mg/dL, a TG (72 h, time 3 day) of 97 mg/dL and a TP (72 h, time 3 day) of 5.7 g/dL. It also gave a gamma-GTP (72 h, time 3 day) of 1.2 IU/L, a TERMINAL_BW ([…], time 7 day) of 268.3 g and a TERMINAL_BW ([…], time 14 day) of 312.6 g. The TERMINAL_BW ([…], time 28 day) was 389.5 g, the APTT ([…], time 7 day) was 22.7 s and the Bas ([…], time 7 day) was 0%. The Eos ([…], time 7 day) was 1%, the Fbg ([…], time 7 day) was 206.4 mg/dL and the Hb ([…], time 7 day) was 13.7 g/dL. The Ht ([…], time 7 day) was 40.1%, the Lym ([…], time 7 day) was 81.8% and the MCH ([…], time 7 day) was 20.8 pg. For the same compound, the MCHC ([…], time 7 day) was 34.2%, the MCV ([…], time 7 day) was 60.8 fL and the Mono ([…], time 7 day) was 2.2%. The Neu ([…], time 7 day) was 14.8%, the PT ([…], time 7 day) was 13.3 s and the Plat ([…], time 7 day) was 121.3 x10_4/uL. It also gave an RBC ([…], time 7 day) of 660 x10_4/ul, a Ret ([…], time 7 day) of 5.6% and a WBC ([…], time 7 day) of 94 x10_2/uL. It also gave an APTT ([…], time 14 day) of 22.1 s, a Bas ([…], time 14 day) of 0% and an Eos ([…], time 14 day) of 0.8%. It also gave a Fbg ([…], time 14 day) of 192.2 mg/dL, a Hb ([…], time 14 day) of 14.3 g/dL and a Ht ([…], time 14 day) of 41.5%. For the same compound, the Lym ([…], time 14 day) was 79.6%, the MCH ([…], time 14 day) was 20.8 pg and the MCHC ([…], time 14 day) was 34.6%. For the same compound, the MCV ([…], time 14 day) was 60.2 fL, the Mono ([…], time 14 day) was 2.2% and the Neu ([…], time 14 day) was 16.4%. It also gave a PT ([…], time 14 day) of 13.8 s, a Plat ([…], time 14 day) of 125.2 x10_4/uL and an RBC ([…], time 14 day) of 689 x10_4/ul. The Ret ([…], time 14 day) was 3.8%, the WBC ([…], time 14 day) was 109.7 x10_2/uL and the APTT ([…], time 28 day) was 24.9 s. The Bas ([…], time 28 day) was 0%, the Eos ([…], time 28 day) was 1.2% and the Fbg ([…], time 28 day) was 184.4 mg/dL. For the same compound, the Hb ([…], time 28 day) was 15.3 g/dL, the Ht ([…], time 28 day) was 44% and the Lym ([…], time 28 day) was 80%. For the same compound, the MCH ([…], time 28 day) was 19.7 pg, the MCHC ([…], time 28 day) was 34.7% and the MCV ([…], time 28 day) was 56.6 fL. For the same compound, the Mono ([…], time 28 day) was 2%, the Neu ([…], time 28 day) was 15.8% and the PT ([…], time 28 day) was 14 s. For the same compound, the Plat ([…], time 28 day) was 114 x10_4/uL, the RBC ([…], time 28 day) was 779.4 x10_4/ul and the Ret ([…], time 28 day) was 1.9%. The WBC ([…], time 28 day) was 137.8 x10_2/uL, the KIDNEY_L ([…], time 7 day) was 1.1 g and the KIDNEY_R ([…], time 7 day) was 1.1 g. The KIDNEY_TOTAL ([…], time 7 day) was 2.2 g, the KIDNEY_L ([…], time 14 day) was 1.3 g and the KIDNEY_R ([…], time 14 day) was 1.2 g. The KIDNEY_TOTAL ([…], time 14 day) was 2.5 g, the KIDNEY_L ([…], time 28 day) was 1.4 g and the KIDNEY_R ([…], time 28 day) was 1.4 g. The KIDNEY_TOTAL ([…], time 28 day) was 2.8 g, the LIVER ([…], time 7 day) was 12.3 g and the LIVER ([…], time 14 day) was 13.8 g. The LIVER ([…], time 28 day) was 17.2 g, the A/G ([…], time 7 day) was 1.7 and the ALP ([…], time 7 day) was 1036.6 IU/L. The ALT ([…], time 7 day) was 32.8 IU/L, the AST ([…], time 7 day) was 61.2 IU/L and the BUN ([…], time 7 day) was 15.2 mg/dL. For the same compound, the CRE ([…], time 7 day) was 0.4 mg/dL, the Ca ([…], time 7 day) was 10.5 mg/dL and the Cl ([…], time 7 day) was 103.2 meq/L. The DBIL ([…], time 7 day) was 0.086 mg/dL, the GLC ([…], time 7 day) was 195.8 mg/dL and the IP ([…], time 7 day) was 7.9 mg/dL. It also gave a K ([…], time 7 day) of 3.8 meq/L, an LDH ([…], time 7 day) of 205.8 IU/L and a Na ([…], time 7 day) of 141.6 meq/L. It also gave a PL ([…], time 7 day) of 143 mg/dL, an RALB ([…], time 7 day) of 3.7 g/dL and a TBIL ([…], time 7 day) of 0.1 mg/dL. For the same compound, the TC ([…], time 7 day) was 61 mg/dL, the TG ([…], time 7 day) was 141.4 mg/dL and the TP ([…], time 7 day) was 5.9 g/dL. The gamma-GTP ([…], time 7 day) was 1 IU/L, the A/G ([…], time 14 day) was 1.7 and the ALP ([…], time 14 day) was 768.4 IU/L. The ALT ([…], time 14 day) was 28.6 IU/L, the AST ([…], time 14 day) was 56.2 IU/L and the BUN ([…], time 14 day) was 16.8 mg/dL. It also gave a CRE ([…], time 14 day) of 0.5 mg/dL, a Ca ([…], time 14 day) of 10.3 mg/dL and a Cl ([…], time 14 day) of 101.8 meq/L. The DBIL ([…], time 14 day) was 0.09 mg/dL, the GLC ([…], time 14 day) was 215.4 mg/dL and the IP ([…], time 14 day) was 7.2 mg/dL. For the same compound, the K ([…], time 14 day) was 3.7 meq/L, the LDH ([…], time 14 day) was 202.4 IU/L and the Na ([…], time 14 day) was 140.8 meq/L. For the same compound, the PL ([…], time 14 day) was 126.8 mg/dL, the RALB ([…], time 14 day) was 3.6 g/dL and the TBIL ([…], time 14 day) was 0.1 mg/dL. For the same compound, the TC ([…], time 14 day) was 49.6 mg/dL, the TG ([…], time 14 day) was 134 mg/dL and the TP ([…], time 14 day) was 5.9 g/dL. The gamma-GTP ([…], time 14 day) was 0.8 IU/L, the A/G ([…], time 28 day) was 1.6 and the ALP ([…], time 28 day) was 588.2 IU/L. It also gave an ALT ([…], time 28 day) of 34.4 IU/L, an AST ([…], time 28 day) of 61.6 IU/L and a BUN ([…], time 28 day) of 18.6 mg/dL. The CRE ([…], time 28 day) was 0.5 mg/dL, the Ca ([…], time 28 day) was 10.4 mg/dL and the Cl ([…], time 28 day) was 103.4 meq/L. The DBIL ([…], time 28 day) was 0.1 mg/dL, the GLC ([…], time 28 day) was 221.8 mg/dL and the IP ([…], time 28 day) was 6.7 mg/dL. It also gave a K ([…], time 28 day) of 3.5 meq/L, an LDH ([…], time 28 day) of 209 IU/L and a Na ([…], time 28 day) of 142.4 meq/L. It also gave a PL ([…], time 28 day) of 124.2 mg/dL, an RALB ([…], time 28 day) of 3.8 g/dL and a TBIL ([…], time 28 day) of 0.2 mg/dL. It also gave a TC ([…], time 28 day) of 48.6 mg/dL, a TG ([…], time 28 day) of 144.8 mg/dL and a TP ([…], time 28 day) of 6.2 g/dL. The gamma-GTP ([…], time 28 day) was 1 IU/L.
